What was measured:
hTRPV1 [1] = molecular target: T1, hTRPV1 (Homo sapiens, UniProt Q8NER1); experiment: hTRPV1 antagonism of capsaicin; format: cell-based; settings: for fold loss in antagonistic potency compared to the corresponding parent (1 or 2): less potent than parent
hTRPV1 [2] = molecular target: T1, hTRPV1; experiment: hTRPV1 antagonism of pH activation; format: cell-based; settings: heat (45 °C), NADA

T1 sequence (Q8NER1 whole entry): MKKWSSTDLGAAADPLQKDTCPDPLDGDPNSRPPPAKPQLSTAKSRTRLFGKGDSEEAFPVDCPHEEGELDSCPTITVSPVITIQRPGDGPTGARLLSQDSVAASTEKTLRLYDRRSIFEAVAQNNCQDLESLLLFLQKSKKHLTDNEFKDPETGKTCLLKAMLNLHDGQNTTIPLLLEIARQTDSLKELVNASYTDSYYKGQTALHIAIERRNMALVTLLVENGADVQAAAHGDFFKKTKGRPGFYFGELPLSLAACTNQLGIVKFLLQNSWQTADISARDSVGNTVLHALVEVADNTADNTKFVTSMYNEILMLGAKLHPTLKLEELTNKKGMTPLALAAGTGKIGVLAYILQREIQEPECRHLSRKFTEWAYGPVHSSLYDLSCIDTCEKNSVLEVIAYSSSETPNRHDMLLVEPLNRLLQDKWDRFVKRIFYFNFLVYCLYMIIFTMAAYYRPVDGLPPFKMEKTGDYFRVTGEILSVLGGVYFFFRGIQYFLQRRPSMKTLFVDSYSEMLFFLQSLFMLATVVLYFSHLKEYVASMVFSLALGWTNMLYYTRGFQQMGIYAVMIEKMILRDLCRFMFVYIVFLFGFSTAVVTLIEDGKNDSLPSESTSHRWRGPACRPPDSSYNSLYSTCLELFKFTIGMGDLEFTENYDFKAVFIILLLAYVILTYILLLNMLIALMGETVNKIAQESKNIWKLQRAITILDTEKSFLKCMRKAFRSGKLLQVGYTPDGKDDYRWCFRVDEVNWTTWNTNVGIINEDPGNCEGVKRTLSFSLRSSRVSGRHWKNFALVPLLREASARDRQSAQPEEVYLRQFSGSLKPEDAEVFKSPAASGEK

Structure (SMILES)	fold loss in antagonistic potency compared to the corresponding parent (1 or 2) (hTRPV1 [1])	fold weaker potency toward the other activators compared to 1 (hTRPV1 [2])	fold more potent than parent 1 (hTRPV1 [1]; improvement over parent 1)
CCC(C(=O)NCc1ccc(C(F)(F)F)nc1N1CCC(C)CC1)c1ccc(NS(C)(=O)=O)c(F)c1 (stereo not drawn) [Compound 21]	5 fold		
CC1CCN(c2nc(C(F)(F)F)ccc2CNC(=O)C(c2ccc(NS(C)(=O)=O)c(F)c2)C2CCCC2)CC1 (stereo not drawn) [Compound 22]	> 100 fold		
CS(=O)(=O)Nc1ccc(C(C(=O)NCc2ccc(C(F)(F)F)nc2SC2CCCCC2)C2CCCC2)cc1F (stereo not drawn) [Compound 23]	> 100 fold		
CC1CCN(c2nc(C(F)(F)F)ccc2CNC(=O)C(c2ccc(NS(C)(=O)=O)c(F)c2)C2CCCCC2)CC1 (stereo not drawn) [Compound 24]	> 100 fold		
CS(=O)(=O)Nc1ccc(C(C(=O)NCc2ccc(C(F)(F)F)nc2SC2CCCCC2)C2CCCCC2)cc1F (stereo not drawn) [Compound 25]	> 100 fold		
Cc1ccccc1C(C(=O)NCc1ccc(C(F)(F)F)nc1N1CCC(C)CC1)c1ccc(NS(C)(=O)=O)c(F)c1 (stereo not drawn) [Compound 32]	> 140 fold		
Cc1ccccc1C(C(=O)NCc1ccc(C(F)(F)F)nc1SC1CCCCC1)c1ccc(NS(C)(=O)=O)c(F)c1 (stereo not drawn) [Compound 33]	> 140 fold		
Cc1cccc(C(C(=O)NCc2ccc(C(F)(F)F)nc2N2CCC(C)CC2)c2ccc(NS(C)(=O)=O)c(F)c2)c1 (stereo not drawn) [Compound 34]		5–15 fold	3 fold
Cc1cccc(C(C(=O)NCc2ccc(C(F)(F)F)nc2SC2CCCCC2)c2ccc(NS(C)(=O)=O)c(F)c2)c1 (stereo not drawn) [Compound 35]	60 fold		
Cc1ccc(C(C(=O)NCc2ccc(C(F)(F)F)nc2N2CCC(C)CC2)c2ccc(NS(C)(=O)=O)c(F)c2)cc1 (stereo not drawn) [Compound 36]	3–8 fold		
Cc1ccc(C(C(=O)NCc2ccc(C(F)(F)F)nc2SC2CCCCC2)c2ccc(NS(C)(=O)=O)c(F)c2)cc1 (stereo not drawn) [Compound 37]	3–8 fold		

Reference: publication PMC6957262 (Bioorganic & medicinal chemistry letters, 2015)
